Results from article PMC12754617, “Ruthenium-enhanced curcumin derivatives target tumor growth and cancer-related inflammation in head and neck cancer models” (Frontiers in Oncology, 2025).
Where two headings read alike, the source gives them in different places.

Assays:
Type in all cases: cell-based, human
[1] = system: TR146; test: MTT viability assay
Procedure: (§1) A colorimetric 3-(4,5-dimethylthiazolyl)-2,5-diphenyltetrazolium bromide (MTT) cell metabolic activity assay was used to assess the cytotoxicity of complexes 3 and 4. The cells (described above) were cultured under standard conditions. Cells were seeded in 96-well plates at a density of 10,000 cells per well (200 μL) and allowed to grow for 24 h. The medium was then replaced with medium containing complex 3 or 4 at a concentration ranging from 0 to 200 μM, and the cells were incubated for an additional 24, 48, and 72 h. Subsequently, the medium was replaced with MTT solution, consisting of yellow tetrazolium dye 3-(4,5-dimethylthiazol-2-yl)-2,5-diphenyltetrazolium bromide (Sigma-Aldrich, Merck, Germany), and incubated for 2 h at 37°C. The dye was then removed, and the resulting purple formazan formed in viable cells was dissolved in DMSO, followed by shaking for 30 s. Absorbance was measured at 570 nm using an […] 200 PRO microplate reader (TECAN, Männedorf, Switzerland). All experiments were performed in quadruplicate and repeated three times.
(§2) The cell inhibitory concentration (IC) was calculated using the equation IC = (Acomplex3/complex4 well/mean Acontrol wells) × 100%. The half-maximal inhibitory concentration (IC50) was determined from dose–response curves using GraphPad Prism 10 (GraphPad Software Inc., La Jolla, CA, USA). The selectivity index toward cancer cells was calculated as a ratio of the average IC50 value for HGF to the IC50 value for the corresponding cancer cell line.

[2] = system: Detroit 562; test: MTT viability assay
Procedure: as §1, §2

[3] = system: FaDu; test: MTT viability assay
Procedure: as §1, §2

[4] = system: CAL 27; test: MTT viability assay
Procedure: as §1, §2

[5] = system: KB; test: MTT viability assay
Procedure: as §1, §2

[6] = system: Hep-2; test: MTT viability assay
Procedure: as §1, §2

[7] = system: HGF; test: MTT viability assay
Procedure: as §1, §2

[8] = system: SCC-9; test: MTT viability assay
Procedure: as §1, §2

[9] = system: TR146; test: Wound healing assay; settings: IC25 concentration, area closed
Procedure: (§3) The wound healing activity of complexes 3 and 4 was evaluated using the ibidi Culture-Insert 2 Well in a μ-dish. Cells were plated by applying 70 μL of cell suspension at a density of 50,000 cells into both wells of the Culture-Insert 2 Well and grown over the weekend. Once confluency was achieved, sterile tweezers were used to detach the Culture-Insert 2 Well from the μ-dish. The cell layer was then gently washed with PBS. Subsequently, the cell layer was treated with medium containing complex 3 or 4 at the IC25 concentration, and wound closure was observed and photographed using an inverted light microscope (0–55 h of incubation). Experiments were performed in four independent replicates.
(§4) An in vitro wound healing assay was performed to determine the effect of complex 3 or 4 on cell migration. The area of the wound bordered by a monolayer of cells was measured using ImageJ software. Wound closure was monitored from 0 to 55 h. […] Microscope images after 24 h for all cell lines, as well as 55 h, can be seen in Supplementary Figure S7. […] The stained wound healing area after 55 h is shown in Supplementary Figure S10.

[10] = system: Detroit 562; test: Wound healing assay; settings: IC25 concentration, area closed
Procedure: as §3, §4

[11] = system: FaDu; test: Wound healing assay; settings: IC25 concentration, area closed
Procedure: as §3, §4

[12] = system: CAL 27; test: Wound healing assay; settings: IC25 concentration, area closed
Procedure: as §3, §4

[13] = system: KB; test: Wound healing assay; settings: IC25 concentration, area closed
Procedure: as §3, §4

[14] = system: Hep-2; test: Wound healing assay; settings: IC25 concentration, area closed
Procedure: as §3, §4

[15] = system: HGF; test: Wound healing assay; settings: IC25 concentration, area closed
Procedure: as §3, §4

[16] = system: SCC-9; test: Wound healing assay; settings: IC25 concentration, area closed
Procedure: as §3, §4

Compound: Cc1ccc(C(C)C)cc1.Cc1ccc(C(C)C)cc1.O=C1C(=Cc2cccnc2)CCC1=Cc1cccnc1.[Cl][Ru][Cl].[Cl][Ru][Cl] [Complex 4]
- IC50 ([1]; TR146, 24 h, read-out: IC50 24h): 59.3 ± 3.24 µM
- IC50 ([1]; TR146, 48 h, read-out: IC50 48h): 16.8 ± 0.81 µM
- IC50 ([1]; TR146, 72 h, read-out: IC50 72h): 18.2 ± 1.07 µM
- IC50 ([2]; Detroit 562, 24 h, read-out: IC50 24h): 21.7 ± 2.45 µM
- IC50 ([2]; Detroit 562, 48 h, read-out: IC50 48h): 42.2 ± 0.62 µM
- IC50 ([2]; Detroit 562, 72 h, read-out: IC50 72h): 18.1 ± 2.63 µM
- IC50 ([3]; 24 h, read-out: IC50 24h): 25.9 ± 0.25 µM
- IC50 ([3]; 48 h, read-out: IC50 48h): 17.1 ± 2.24 µM
- IC50 ([3]; 72 h, read-out: IC50 72h): 21.6 ± 0.73 µM
- IC50 ([4]; CAL 27, 24 h, read-out: IC50 24h): 27.1 ± 0.79 µM
- IC50 ([4]; CAL 27, 48 h, read-out: IC50 48h): 16.1 ± 0.57 µM
- IC50 ([4]; CAL 27, 72 h, read-out: IC50 72h): 33.3 ± 0.65 µM
- IC50 ([5]; 24 h, read-out: IC50 24h): 20.8 ± 0.77 µM
- IC50 ([5]; 48 h, read-out: IC50 48h): 25.2 ± 0.33 µM
- IC50 ([5]; 72 h, read-out: IC50 72h): 30.3 ± 0.65 µM
- IC50 ([6]; Hep-2, 24 h, read-out: IC50 24h): 88 ± 4.03 µM
- IC50 ([6]; Hep-2, 48 h, read-out: IC50 48h): 21.2 ± 0.02 µM
- IC50 ([6]; Hep-2, 72 h, read-out: IC50 72h): 37.65 ± 0.36 µM
- IC50 ([7]; 24 h, read-out: IC50 24h): 28.2 ± 2.78 µM
- IC50 ([7]; 48 h, read-out: IC50 48h): 9 ± 1.68 µM
- IC50 ([7]; 72 h, read-out: IC50 72h): 13.9 ± 0.59 µM
- IC50 ([8]; SCC-9, 24 h, read-out: IC50 24h): 14.3 µM
- IC50 ([8]; SCC-9, 48 h, read-out: IC50 48h): 16.6 ± 0.71 µM
- IC50 ([8]; SCC-9, 72 h, read-out: IC50 72h): 3.65 ± 0.4 µM
- Wound area (%) ([9]; TR146, 24 h): 3 ± 1%
- Wound area (%) ([9]; TR146, 48 h): 5 ± 1%
- Wound area (%) ([9]; TR146, 55 h): less than 15%
- Wound area (%) ([9]; TR146, 55 h, listed as C4): 7 ± 1%
- Wound area (%) ([10]; Detroit 562, 24 h): 13 ± 7%
- Wound area (%) ([10]; Detroit 562, 48 h): 38 ± 11%
- Wound area (%) ([10]; Detroit 562, 55 h): 76 ± 2%
- Wound area (%) ([11]; 24 h): 24 ± 6%
- Wound area (%) ([11]; 48 h): 43 ± 10%
- Wound area (%) ([11]; 55 h): 61 ± 6%
- Wound area (%) ([12]; CAL 27, 24 h): 7 ± 4%
- Wound area (%) ([12]; CAL 27, 48 h): 11 ± 3%
- Wound area (%) ([12]; CAL 27, 55 h): less than 15%
- Wound area (%) ([12]; CAL 27, 55 h, listed as C4): 12 ± 3%
- Wound area (%) ([13]; 24 h): 16 ± 4%
- Wound area (%) ([13]; 48 h): 33 ± 4%
- Wound area (%) ([13]; 55 h): less than 50%
- Wound area (%) ([13]; 55 h, listed as C4): 44 ± 2%
- Wound area (%) ([14]; Hep-2, 24 h): 9 ± 2%
- Wound area (%) ([14]; Hep-2, 48 h): 23 ± 3%
- Wound area (%) ([14]; Hep-2, 55 h): less than 50%
- Wound area (%) ([14]; Hep-2, 55 h, listed as C4): 47 ± 2%
- Wound area (%) ([15]; 24 h): 13 ± 3%
- Wound area (%) ([15]; 48 h): 47 ± 11%
- Wound area (%) ([15]; 55 h): 91 ± 1%
- Wound area (%) ([16]; SCC-9, 24 h): 17 ± 12%
- Wound area (%) ([16]; SCC-9, 48 h): 37 ± 8%
- Wound area (%) ([16]; SCC-9, 55 h): 55 ± 13%
